Common to all, as to assay: KINOMEscan (ScanMAX) kinase profiling
Holding throughout (format): binding

Test [1] has as its target T1, panel of 468 kinases (Homo sapiens, UniProt Q13177).
T1 construct: purchased KINOMEscan (ScanMAX) service
Particulars: PAK2; 1 μM; read-out: % control.

Test [2] addresses T2, panel of 468 kinases (Homo sapiens, UniProt O15530).
T2 construct: purchased KINOMEscan (ScanMAX) service
T2 sequence (O15530 1-556): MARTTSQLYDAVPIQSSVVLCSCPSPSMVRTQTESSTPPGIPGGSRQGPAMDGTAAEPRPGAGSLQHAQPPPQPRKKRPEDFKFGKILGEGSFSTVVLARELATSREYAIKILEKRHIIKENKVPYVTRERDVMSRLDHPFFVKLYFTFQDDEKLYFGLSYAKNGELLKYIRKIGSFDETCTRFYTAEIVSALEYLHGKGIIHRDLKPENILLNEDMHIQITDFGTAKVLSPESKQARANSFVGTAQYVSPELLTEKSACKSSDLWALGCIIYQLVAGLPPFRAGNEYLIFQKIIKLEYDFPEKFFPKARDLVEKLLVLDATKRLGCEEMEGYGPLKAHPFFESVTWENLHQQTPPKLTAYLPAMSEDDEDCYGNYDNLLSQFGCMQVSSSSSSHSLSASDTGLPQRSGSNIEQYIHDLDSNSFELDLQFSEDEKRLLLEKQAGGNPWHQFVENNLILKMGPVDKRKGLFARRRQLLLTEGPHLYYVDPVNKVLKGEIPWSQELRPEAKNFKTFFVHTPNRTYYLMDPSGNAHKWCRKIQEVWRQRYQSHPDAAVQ
Particulars: PDPK1; 1 μM; read-out: % control.

The target of test [3] is T3, panel of 468 kinases (Homo sapiens, UniProt P17612).
T3 construct: purchased KINOMEscan (ScanMAX) service
As to conditions: PKAC-alpha; 1 μM; read-out: % control.

Test [4] deals with T4, panel of 468 kinases (Homo sapiens, UniProt Q8IYT8).
T4 construct: purchased KINOMEscan (ScanMAX) service
T4 sequence (Q8IYT8 1-1036): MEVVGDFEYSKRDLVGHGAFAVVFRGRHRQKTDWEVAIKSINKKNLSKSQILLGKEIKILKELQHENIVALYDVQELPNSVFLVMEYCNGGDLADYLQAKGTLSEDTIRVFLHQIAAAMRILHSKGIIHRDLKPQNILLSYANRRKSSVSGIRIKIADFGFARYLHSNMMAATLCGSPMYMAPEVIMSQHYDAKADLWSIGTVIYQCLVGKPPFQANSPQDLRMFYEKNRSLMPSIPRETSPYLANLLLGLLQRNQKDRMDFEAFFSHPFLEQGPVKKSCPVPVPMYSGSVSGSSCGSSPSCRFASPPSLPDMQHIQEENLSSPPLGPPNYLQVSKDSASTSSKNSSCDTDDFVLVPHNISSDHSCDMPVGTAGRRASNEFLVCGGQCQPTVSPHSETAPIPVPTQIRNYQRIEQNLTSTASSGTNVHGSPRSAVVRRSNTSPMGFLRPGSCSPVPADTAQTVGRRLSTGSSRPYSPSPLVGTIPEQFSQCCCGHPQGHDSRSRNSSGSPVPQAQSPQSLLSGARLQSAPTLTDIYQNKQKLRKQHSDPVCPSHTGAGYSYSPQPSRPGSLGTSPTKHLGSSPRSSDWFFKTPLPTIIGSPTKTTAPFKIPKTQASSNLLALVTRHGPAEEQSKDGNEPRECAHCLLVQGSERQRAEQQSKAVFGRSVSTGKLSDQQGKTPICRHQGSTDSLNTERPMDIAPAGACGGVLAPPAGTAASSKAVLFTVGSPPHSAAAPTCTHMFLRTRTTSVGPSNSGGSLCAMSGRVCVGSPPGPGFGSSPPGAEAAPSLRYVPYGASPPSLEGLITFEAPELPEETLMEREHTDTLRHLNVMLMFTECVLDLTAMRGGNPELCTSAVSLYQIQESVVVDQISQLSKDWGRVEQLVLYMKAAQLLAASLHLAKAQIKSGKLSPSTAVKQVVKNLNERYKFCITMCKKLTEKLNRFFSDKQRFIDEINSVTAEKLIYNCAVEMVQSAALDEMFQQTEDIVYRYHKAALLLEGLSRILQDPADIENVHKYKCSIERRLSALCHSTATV
As to conditions: ULK2; 1 μM; read-out: % control.

T1 sequence (Q13177 whole entry): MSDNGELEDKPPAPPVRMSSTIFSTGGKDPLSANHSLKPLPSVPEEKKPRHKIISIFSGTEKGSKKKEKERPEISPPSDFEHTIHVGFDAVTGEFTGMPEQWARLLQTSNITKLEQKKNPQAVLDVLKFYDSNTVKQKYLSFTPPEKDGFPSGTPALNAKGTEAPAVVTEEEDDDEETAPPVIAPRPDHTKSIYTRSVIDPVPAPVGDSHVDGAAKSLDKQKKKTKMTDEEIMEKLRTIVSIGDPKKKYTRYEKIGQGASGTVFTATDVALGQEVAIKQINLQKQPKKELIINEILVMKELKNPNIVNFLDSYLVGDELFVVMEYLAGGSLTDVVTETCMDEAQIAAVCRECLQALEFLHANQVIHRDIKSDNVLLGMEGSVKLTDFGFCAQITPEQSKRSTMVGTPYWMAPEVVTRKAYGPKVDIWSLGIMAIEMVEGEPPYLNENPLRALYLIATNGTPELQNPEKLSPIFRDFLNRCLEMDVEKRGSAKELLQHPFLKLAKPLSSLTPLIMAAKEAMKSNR

For the molecule `CNc1nc(Nc2ccc(C(=O)N3CCC(N4CCOCC4)CC3)c3c2OCO3)nc2[nH]cc(Cl)c12` [Compound 75, (7-((5-chloro-4-(methylamino)-7H-pyrrolo[2,3-d]pyrimidin-2-yl)amino)benzo[d][1,3]dioxol-4-yl)(4-morpholinopiperidin-1-yl)methanone], the remaining binding at 1 µM at panel of 468 kinases [1] was determined as 100%; on panel of 468 kinases [2], 98%; at panel of 468 kinases [3], 100%; on panel of 468 kinases [4], 79%.
For `CNc1nc(Nc2ccc(P3(=O)CCN(C4CCOCC4)CC3)cc2OC)nc2[nH]cc(Cl)c12` [Compound 77, 4-(4-((5-chloro-4-(methylamino)-7H-pyrrolo[2,3-d]pyrimidin-2-yl)amino)-3-methoxyphenyl)-1-(tetrahydro-2H-pyran-4-yl)-1,4-azaphosphinane 4-oxide], the remaining binding at 1 µM at panel of 468 kinases [1] was 100%; at panel of 468 kinases [2], 100%; on panel of 468 kinases [3], 100%; at panel of 468 kinases [4], 91%.
For `CNc1nc(Nc2ccc(S(=O)(=O)N3CCC(N4CCOCC4)CC3)cc2OC)nc2[nH]cc(Cl)c12` [Compound 12, 5-chloro-N2-(2-methoxy-4-((4-morpholinopiperidin-1-yl)sulfonyl)phenyl)-N4-methyl-7H-pyrrolo[2,3-d]pyrimidine-2,4-diamine], the remaining binding at 1 µM was determined as 100% at panel of 468 kinases [1], 95% at panel of 468 kinases [2], 100% on panel of 468 kinases [3] and 96% on panel of 468 kinases [4].

Source of the values: patent publication US12479847B2 (DANA-FARBER CANCER INSTITUTE, INC., priority 2019, dated 2025).
